Key:
KDR [1] = molecular target: T1, KDR (Homo sapiens, UniProt P35968); assay: KDR Enzymatic Assay (fluorescence polarization competition immunoassay); assay type: biochemical; details: for IC50: 1.6 nM KDR, 10 μM ATP, 10 μg/ml poly(E4,Y), averages of three independent measurements, read-out: IC50 Enzyme; for protein tyrosine kinase (KDR) inhibition, potency in words: text commentary on Table 1
Experimental: KDR Enzymatic Assay. A fluorescence polarization competition immunoassay was used to determine the compound potency for KDR. The assay was performed in black 96-well microplates (LJL BioSystems). The assay buffer used was 100 mM HEPES, pH 7.5, 1 mM DTT, 0.01% (v/v) Tween-20. Compounds were diluted in assay buffer containing 4% DMSO just prior to the assay. […] The kinase reaction was initiated by adding 2 μl of 8 nM KDR in assay buffer.
The plates were incubated at room temperature for 5 min. At the end of the incubation, the reaction was quenched with 1.2 μl of 50 mM EDTA. Following a 5-min incubation, each well received 10 μl of a 1:1:3 mixture of anti-phosphotyrosine antibody, 10×, PTK green tracer, 10× (vortexed), FP dilution buffer, respectively (all from PanVera, cat. # P2837). The plate was covered, incubated for 30 min at room temperature and the fluorescence polarization was read on an ANALYST™ HT Assay Detection System (LJL Biosystems, Sunnyvale, Calif.). The instrument settings were: 485 nm excitation filter; 530 nm emission filter; Z height: middle of well; G factor: 0.93. […] The IC50 values reported are the averages of three independent measurements.
Target sequence in this assay (P35968 20-1356, species assumed): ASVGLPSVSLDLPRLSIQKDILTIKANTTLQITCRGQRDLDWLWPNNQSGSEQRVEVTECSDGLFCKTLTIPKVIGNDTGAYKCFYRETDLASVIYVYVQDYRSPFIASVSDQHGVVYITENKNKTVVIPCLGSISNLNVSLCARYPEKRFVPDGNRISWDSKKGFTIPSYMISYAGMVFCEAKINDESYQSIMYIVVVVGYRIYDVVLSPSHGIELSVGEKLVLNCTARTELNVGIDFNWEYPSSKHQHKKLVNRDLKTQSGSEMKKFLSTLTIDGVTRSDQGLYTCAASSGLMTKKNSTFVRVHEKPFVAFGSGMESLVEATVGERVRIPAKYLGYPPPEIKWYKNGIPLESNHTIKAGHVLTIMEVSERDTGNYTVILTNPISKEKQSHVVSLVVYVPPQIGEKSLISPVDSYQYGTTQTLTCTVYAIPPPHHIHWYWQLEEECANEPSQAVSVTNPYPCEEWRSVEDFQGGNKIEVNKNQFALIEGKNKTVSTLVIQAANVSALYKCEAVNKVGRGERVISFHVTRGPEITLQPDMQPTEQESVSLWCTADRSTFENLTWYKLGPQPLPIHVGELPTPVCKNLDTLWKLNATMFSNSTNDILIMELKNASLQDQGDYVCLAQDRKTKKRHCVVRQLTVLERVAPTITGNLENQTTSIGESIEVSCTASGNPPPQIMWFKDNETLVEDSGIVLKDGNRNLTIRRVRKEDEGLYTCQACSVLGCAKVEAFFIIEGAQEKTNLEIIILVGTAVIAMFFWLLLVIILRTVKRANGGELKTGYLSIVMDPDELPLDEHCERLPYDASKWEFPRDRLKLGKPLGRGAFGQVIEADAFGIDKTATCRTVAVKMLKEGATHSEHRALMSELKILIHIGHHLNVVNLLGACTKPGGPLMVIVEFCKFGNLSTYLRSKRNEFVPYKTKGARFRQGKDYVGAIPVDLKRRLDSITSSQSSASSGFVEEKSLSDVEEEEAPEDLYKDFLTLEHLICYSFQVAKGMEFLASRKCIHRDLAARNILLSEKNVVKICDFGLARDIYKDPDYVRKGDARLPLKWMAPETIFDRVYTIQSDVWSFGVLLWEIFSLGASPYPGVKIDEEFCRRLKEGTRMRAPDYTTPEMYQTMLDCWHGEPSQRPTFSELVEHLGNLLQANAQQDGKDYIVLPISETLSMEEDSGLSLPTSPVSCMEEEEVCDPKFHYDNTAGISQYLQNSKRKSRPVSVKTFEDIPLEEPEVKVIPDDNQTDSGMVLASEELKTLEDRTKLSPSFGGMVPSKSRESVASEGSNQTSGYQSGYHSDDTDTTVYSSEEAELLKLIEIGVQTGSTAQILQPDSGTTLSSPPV

KDR [2] = molecular target: T1, KDR; assay: KDR Cell-Based Assay (VEGF-stimulated MAP kinase activation in HUVEC); parameters: which express endogenous Flk-1(KDR); endogenous in cells; host or cells: HUVEC (human umbilical vein endothelial cells); details: compounds 30 minutes prior to 25 ng/ml VEGF for 10 minutes, phosphorylated MAP kinase immunoblot
Experimental: KDR Cell-Based Assay. To determine the effect of the test compounds on KDR function in cells, VEGF-stimulated MAP kinase activation in human umbilical vein endothelial cells (HUVEC), which express endogenous Flk-1(KDR), was examined. HUVECs were grown to confluence in EMB-2 endothelial cell media (Biowhittaker Inc., Walkersville, Md.) at 37° C. and 5% CO2. Confluent, quiescent HUVECs were treated with the test compounds 30 minutes prior to stimulation with 25 ng/ml VEGF for 10 minutes at 37° C. These cells were then lysed in HNTG buffer (50 mM HEPES, 150 mM NaCl, 1% triton-X-100, 1.5 mM MgCl2, 10% glycerol, 10 mM NaF, 1 mM EDTA, 10 mM sodium pyrophosphate, 1 uM PMSF and 250 uM NaVO4). Cell lysates (40 ug total protein) were separated by SDS-PAGE and transferred to nitrocellulose. Immunoblots were probed with a polyclonal antibody to phosphorylated MAP kinase (Cell Signaling Technologies, Woburn, Mass.) and alkaline phosphatase conjugated secondary antibody (Biorad Labs, Hercules, Calif.). Immunoblot detection was done by measuring the fluorescent product of the alkaline phosphatase reaction with the substrate 9H-(1,3-dichloro-9,9-dimethylacridin-2-one-7-yl) phosphate, diammonium salt (DDAO phosphate) (Molecular Probes, Eugene, Oreg.) using a Molecular Dynamics Typhoon Imaging system (Molecular Dynamics, Sunnyvale, Calif.). Quantitation of DDAO phosphate signal and IC50 determinations were done with Molecular Dynamics ImageQuant software.
Target sequence in this assay (P35968 20-1356): as the sequence (P35968 20-1356, species assumed) above

Row | SMILES | IC50 (KDR [1]) [nM] | IC50 (KDR [2]) [nM] | protein tyrosine kinase (KDR) inhibition, potency in words (KDR [1])
1 | CCN(Cc1ccccc1)c1nc(O)nc(Nc2ccc3ncsc3c2)n1 [Example 1, 4-(Benzothiazol-6-ylamino)-6-(N-ethylbenzylamino)-[1,3,5]triazin-2-ol] | < 1000 | < 1000 | 
2 | C[C@@H](Nc1nc(O)nc(Nc2ccc3ncsc3c2)n1)c1ccccc1 [Example 3, (R)-4-(Benzothiazol-6-ylamino)-6-(1-phenylethylamino)-[1,3,5]triazin-2-ol] | < 1000 | 1000 to 15000 | more potent than the corresponding S-enantiomer
3 | CC(C)(Nc1nc(O)nc(Nc2ccc3ncsc3c2)n1)c1ccccc1 [Example 5] | < 1000 | < 1000 | one of the most potent protein tyrosine kinase inhibitors tested
4 | CN(CCc1ccccn1)c1nc(O)nc(Nc2ccc3ncsc3c2)n1 [Example 6, 4-(Benzothiazol-6-ylamino)-6-[methyl-(2-pyridyl-2-ylethyl)amino]-[1,3,5]triazin-2-ol] | < 1000 | 1000 to 15000 | 
5 | Oc1nc(Nc2ccc3ncsc3c2)nc(N2CCSC(c3ccccc3)C2)n1 (stereo not shown) [Example 9, 4-(Benzothiazol-6-ylamino)-6-(2-phenyl-thiomorpholin-4-yl)-[1,3,5]triazin-2-ol] | < 1000 | 1000 to 15000 | potent inhibitors
6 | Oc1nc(Nc2ccc3ncsc3c2)nc(N2CCSCC2c2ccccc2)n1 (stereo not shown) [Example 10, 4-(Benzothiazol-6-ylamino)-6-(3-phenyl-thiomorpholin-4-yl)-[1,3,5]triazin-2-ol] | < 1000 | 1000 to 15000 | potent inhibitors
7 | CN(c1ccc2cn[nH]c2c1)c1nc(O)nc(Nc2ccc3ncsc3c2)n1 [Example 11] | < 1000 | 1000 to 15000 | 
8 | CC(C)(Nc1nc(NO)nc(Nc2ccc3ncsc3c2)n1)c1ccccc1 [Example 14] | < 1000 | 1000 to 15000 | 
9 | CC(C)(Nc1nc(N)nc(Nc2ccc3ncsc3c2)n1)c1ccccc1 [Example 15, N-(Benzothiazol-6-yl)-N′-(1-methyl-1-phenylethyl)-[1,3,5]triazine-2,4,6-triamine] | 1000 to 15000 |  | 
10 | COc1nc(Nc2ccc3ncsc3c2)nc(NC(C)(C)c2ccccc2)n1 [Example 17, N-(Benzothiazol-6-yl)-6-methoxy-N′-(1-methyl-1-1-phenylethyl)-[1,3,5]triazine-2,4-diamine] | 1000 to 15000 |  | 

Results, then the compound that gave them:

Row | IC50 (KDR [1]) [nM] | IC50 (KDR [2]) [nM] | protein tyrosine kinase (KDR) inhibition, potency in words (KDR [1]) | SMILES
11 | 1000 to 15000 |  | less active than Examples 3 and 4 | Oc1nc(NCc2ccccc2)nc(Nc2ccc3ncsc3c2)n1 [Example 2, 4-(Benzothiazol-6-ylamino)-6-(benzylamino)-[1,3,5]triazin-2-ol]
12 | 1000 to 15000 |  |  | C[C@H](Nc1nc(O)nc(Nc2ccc3ncsc3c2)n1)c1ccccc1 [Example 4, (S)-4-(Benzothiazol-6-ylamino)-6-(1-phenylethylamino)-[1,3,5]triazin-2-ol]
13 | < 1000 | 1000 to 15000 |  | CC(C)(Nc1nc(O)nc(Nc2ccc3ncccc3c2)n1)c1ccccc1 [Example 7, 4-(1-methyl-1-phenylethylamino)-6-(guinolin-6-ylamino)-[1,3,5]triazin-2-ol]
14 | < 1000 | 1000 to 15000 |  | Oc1nc(Nc2ccc3ncsc3c2)nc(N2CCCC2c2ccccc2)n1 (stereo not shown) [Example 8, 4-(Benzothiazol-6-ylamino)-6-(2-phenyl-pyrrolidin-1-yl)-[1,3,5]triazin-2-ol]
15 | 1000 to 15000 |  |  | CC(C)(Nc1ncnc(Nc2ccc3ncsc3c2)n1)c1ccccc1 [Example 16, N-(Benzothiazol-6-yl)-N′-(1-methyl-1-phenylethyl)-[1,3,5]triazine-2,4-diamine]
16 | 1000 to 15000 |  |  | CC(C)(Nc1nc(Nc2ccc3ncsc3c2)nc(OCc2ccccc2)n1)c1ccccc1 [Example 18, N-(Benzothiazol-6-yl)-6-benzyloxy-N′-(1-methyl-1-phenylethyl)-[1,3,5]triazine-2,4-diamine]

From patent US20040110758A1, “4,6-Diaminosubstituted-2-[oxy or aminoxy]-[1,3,5]triazines as protein tyrosine kinase inhibitors” (priority 2002, published 2004)
